Experiment [1] addresses Carbonic anhydrase 9 (Homo sapiens, UniProt Q16790).
Experiment [2] has as its target Carbonic anhydrase 12 (Homo sapiens, UniProt O43570).
Experiment [3] concerns the target Carbonic anhydrase 1 (Homo sapiens, UniProt P00915). Nature of the experiment: Inhibition of recombinant human carbonic anhydrase 1 preincubated for 15 mins by stopped-flow CO2 hydrase Assay.

Structures are written as SMILES.

Carbonic anhydrase 1, sequence (P00915 whole entry): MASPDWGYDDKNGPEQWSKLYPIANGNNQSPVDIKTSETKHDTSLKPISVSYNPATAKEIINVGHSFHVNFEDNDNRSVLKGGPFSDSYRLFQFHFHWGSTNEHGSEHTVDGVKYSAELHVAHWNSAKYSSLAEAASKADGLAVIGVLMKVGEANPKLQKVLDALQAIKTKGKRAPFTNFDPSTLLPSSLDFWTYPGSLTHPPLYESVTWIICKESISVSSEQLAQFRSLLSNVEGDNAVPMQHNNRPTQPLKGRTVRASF
Carbonic anhydrase 12, sequence (O43570 whole entry): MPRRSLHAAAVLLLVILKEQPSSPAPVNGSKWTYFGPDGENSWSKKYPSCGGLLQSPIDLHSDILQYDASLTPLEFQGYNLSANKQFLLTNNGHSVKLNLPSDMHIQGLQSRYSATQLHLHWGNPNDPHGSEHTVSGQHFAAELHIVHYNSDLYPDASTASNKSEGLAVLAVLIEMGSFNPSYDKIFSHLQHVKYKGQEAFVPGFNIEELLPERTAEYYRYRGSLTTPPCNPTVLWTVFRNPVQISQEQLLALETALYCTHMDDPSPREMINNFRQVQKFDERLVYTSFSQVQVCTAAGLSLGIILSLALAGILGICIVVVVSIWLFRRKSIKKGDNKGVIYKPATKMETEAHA

Regarding `CCCCCc1ccc(-c2cn(-c3ccc(S(N)(=O)=O)cc3)nn2)cc1`, the Ki in experiment [1] was found to be 5 nM. As for `NS(=O)(=O)c1ccc(-n2cc(CCBr)nn2)cc1`, in experiment [1], the inhibition constant Ki came out at 6.9 nM. Take `NS(=O)(=O)c1ccc(-n2cc(CCCCl)nn2)cc1`: the affinity in experiment [1] corresponds to a Ki of 6.2 nM. On the same count and under the same terms, to `NS(=O)(=O)c1ccc(-n2cc(CCCCCl)nn2)cc1` belongs 5.4 nM; to `CC(C)(C)OC(=O)NCc1cn(-c2ccc(S(N)(=O)=O)cc2)nn1`, 10.5 nM; to `NCc1cn(-c2ccc(S(N)(=O)=O)cc2)nn1`, 12.1 nM. The same measure, in the same setting: as for `CCCCCc1ccc(-c2cn(-c3c(F)c(F)c(S(N)(=O)=O)c(F)c3F)nn2)cc1`, the figure is 38.9 nM; as for `NS(=O)(=O)c1c(F)c(F)c(-n2cc(CCCCCl)nn2)c(F)c1F`, 4.5 nM. For the molecule `Cc1ccc(-c2cn(-c3ccc(S(N)(=O)=O)cc3)nn2)cc1`, the Ki in experiment [2] was determined as 3.6 nM; in experiment [3], 368 nM.

`NS(=O)(=O)c1ccc(-n2cc(-c3ccccc3)nn2)cc1`: the inhibition constant (Ki) amounted to 6 nM in experiment [2], 25.9 nM in experiment [1] and 392 nM in experiment [3].

The term Ki denotes a dissociation constant, usually derived from enzyme kinetics or from competition with a known ligand.
